Legend:
[1] = Stability (moisture content) at 23° C. and 92.5% humidity; assay type: physicochemical; settings: temperature 23° C., humidity 92.5%
Procedure: The stability of various 3-hydroxy-3-methylbutyrate salts and the complexes of the present disclosure was each measured at 23° C. and 92.5% humidity, and the results are shown in Table 7.

[2] = Solubility of 3-hydroxy-3-methylbutyrate salts and complexes; assay type: physicochemical
From the text: The solubility of various 3-hydroxy-3-methylbutyrate salts and the complexes of Examples was each determined.

| Compound | moisture content ([1]; 30 min) | moisture content ([1]; 1 h) | moisture content ([1]; 2 h) | moisture content ([1]; 4 h) | moisture content ([1]; 6 h) | moisture content ([1]; 7 h) | moisture content ([1]; 11 h) | moisture content ([1]; 22 h) | Solubility [2] |
| --- | --- | --- | --- | --- | --- | --- | --- | --- | --- |
| CC(C)(O)CC(=O)O [HMB-Ca complex, 3-hydroxy-3-methylbutyric acid·calcium 3-hydroxy-3-methylbutyrate complex] | 0.14% | 0.29% | 0.47% | 0.87% | 1.02% | 1.13% | 1.37% | 2.40% | 32 g/100 |
| CC(C)(O)CC(=O)O [HMB-K complex, 3-hydroxy-3-methylbutyric acid·potassium 3-hydroxy-3-methylbutyrate complex] | 0.29% | 0.59% | 0.97% | 1.80% | 2.11% | 2.35% | 2.85% | 4.98% | 225 g/100 |
| CC(C)(O)CC(=O)O [HMB-Na complex, 3-hydroxy-3-methylbutyric acid·sodium 3-hydroxy-3-methylbutyrate complex] | 0.22% | 0.46% | 0.75% | 1.39% | 1.62% | 1.81% | 2.19% | 3.83% | 135 g/100 |
| CC(C)(O)CC(=O)[O-].[K+] [potassium 3-hydroxy-3-methylbutyrate, reference compound] | 0.42% | 0.85% | 1.39% | 2.57% | 3.02% | 3.35% | 4.07% | 7.11% | 101.1 g/100 |
| CC(C)(O)CC(=O)[O-].[Na+] [sodium 3-hydroxy-3-methylbutyrate, reference compound] | 0.32% | 0.65% | 1.07% | 1.98% | 2.32% | 2.58% | 3.13% | 5.47% | 72.9 g/100 |
| calcium 3-hydroxy-3-methylbutyrate [reference compound] | 0.19% | 0.38% | 0.63% | 1.16% | 1.36% | 1.51% | 1.83% | 3.20% | – |
| magnesium 3-hydroxy-3-methylbutyrate [reference compound] | 0.11% | 0.23% | 0.38% | 0.70% | 0.81% | 0.91% | 1.10% | 1.92% | 6 g/100 |

Source: patent US20260042727A1, “COMPLEX OF 3-HYDROXY-3-METHYLBUTYRIC ACID AND SALT THEREOF, AND PREPARATION METHOD THEREFOR” (NANJING NUTRABUILDING BIO-TECH CO., LTD., priority 2023, published 2026)
